Susceptibility interpretation and IC50 data for two compounds are collected here from PMC7055873 (PLoS ONE, 2020).

“Also recorded” adds a separate entry of the source.

This experiment concerns the target H275Y mutant A(H1N1)pdm09 virus, neuraminidase (NA) (Influenza A virus, UniProt A0A0X9QTS2, H275Y).

In general, IC50 refers to the midpoint of a concentration-inhibition curve. A low value points to higher potency.

In the case of `CCOC(=O)C1=C[C@@H](OC(CC)CC)[C@H](NC(C)=O)[C@@H](N)C1` [Oseltamivir, oseltamivir], the susceptibility interpretation result is listed as “highly reduced inhibition; also recorded: high reduced inhibition”.

On to `CCC(CC)[C@H](NC(C)=O)[C@@H]1[C@H](O)[C@@H](C(=O)O)C[C@H]1N=C(N)N` [Peramivir, peramivir], for which the IC50 amounted to 21.9 nM and the susceptibility interpretation result is on record as “highly reduced inhibition; also recorded: high reduced inhibition”.
